The subject of series [1] is OT1 cells (OVA specific CD8+ T cells). Kind of series: CD25 surface expression of adoptively transferred CFSE-labeled OT1 cells in CLN (FACS). The format is in vivo, mouse. The note with it: 100 μg OVA + 2.0 μg αGalCer intranasal vs OVA alone; 48 hours later. As to the method: To investigate the effect of αGalCer on the activation of T cells, the surface expression of CD25 in CFSE-labeled OT1 cells (OVA specific CD8+ T cells), which were adoptively transferred into syngenic mice, was measured. OT1 cells were separated from OT1 mouse by using CD8α (Ly-2) magnetic bead (Mitenyl Biotech), which were labeled with 10 μM of CFSE at 37° C. for 15 minutes and then transferred intravenously into a syngenic mouse. One day after the adoptive transfer, the intranasal administration of 100 μg of OVA alone or together with 2.0 μg of αGalCer was performed thereto. 48 hours later, the expression of CD25 in CLN was investigated with FACS.

For series [2], the system named is inactivated influenza virus A/PR/8/34 (PR8). Kind of series: Humoral immune response after intranasal formalin-inactivated PR8 virus with αGalCer. The format is in vivo. The note with it: Balb/c mice. As to the method: (§1) To examine the role of αGalCer as an adjuvant of a killed virus, influenza virus A/PR/8/34 (PR8), which was inactivated with formalin, was used as an antigen to examine the anti-virus immune response. Balb/c mice were immunized with indicated amounts (1 μg, 10 μg) of inactivated PR8 alone or together with αGalCer by the intranasal administration twice at two-week intervals. Two weeks after the final immunization, the mice were sacrificed and following experiments were performed.
The nasal wash, the lung wash and serum were separated from the sacrificed mice and the antibody productions were observed therein by the same manner as described in Example 1.

For series [3] the following is noted: mouse treated with 2200 μg/Kg of αGalCer; cited from earlier work.
A further series concerns EG7 tumor cells. Kind of series: EG7 tumor challenge after intranasal immunization with OVA and αGalCer. The format is in vivo. The note with it: C57BL/6 mice, 3×10^6 EG7 cells s.c., day 14. As to the method:
To confirm whether αGalCer could be used as a nasal vaccine adjuvant inducing anticancer activity, C57BL/6 mice were immunized with 100 μg of OVA alone or together with αGalCer (0.125, 0.5, 2.0 μg) by the intranasal administration three times at one-week intervals. Two weeks after the final immunization, 3×10^6 EG7 tumor cells were subcutaneously inoculated in the left flank of the immunized mice. On the 14th day of the inoculation, the mice were sacrificed and the palpable tumors were weighed.

The subject of series [4] is OVA257-264 pulsed CFSE^high spleen cells. Kind of series: In vivo CTL assay: specific lysis of OVA257-264 pulsed CFSE-high cells by FACS, C57BL/6 mice. The note with it: all αGalCer dose groups + OVA intranasal, vs vehicle alone or OVA alone, dose-dependent. As to the method: Spleen cells were separated from naive C57BL/6 mice, which were pulsed with 1 μM of OVA257-264 at 37° C. for 90 minutes. The pulsed cells were labeled with 20 μM of CFSE (Molecular Probes, USA) at 37° C. for 15 minutes, resulting in OVA257-264 pulsed CFSE^high cells. In the meantime, the unpulsed cells were labeled with 2 μM of CFSE (Molecular Probes, USA) at 37° C. for 15 minutes, resulting in the OVA257-264 unpulsed CFSE^low cells. The equal numbers of peptide-pulsed CFSE^high cells and unpulsed CFSE^low cells were mixed, which were intravenously injected to mice at the number of 2×10^7 cells one week after the final immunization. 24 hours later, specific lysis of peptide-pulsed CFSE^high cell was investigated by using FACS in spleen, mesenteric lymph node (MLN) and cervical lymph node (CLN).
On the technique in general: Flow cytometry measures light scatter and fluorescence of single cells or particles in a stream.

In another series the target is T1, CD1d (Mus musculus, UniProt P11609).
T1 construct: host or cells: antigen presenting cells of living C57BL/6 mice (in vivo)
T1 sequence (P11609 22-336): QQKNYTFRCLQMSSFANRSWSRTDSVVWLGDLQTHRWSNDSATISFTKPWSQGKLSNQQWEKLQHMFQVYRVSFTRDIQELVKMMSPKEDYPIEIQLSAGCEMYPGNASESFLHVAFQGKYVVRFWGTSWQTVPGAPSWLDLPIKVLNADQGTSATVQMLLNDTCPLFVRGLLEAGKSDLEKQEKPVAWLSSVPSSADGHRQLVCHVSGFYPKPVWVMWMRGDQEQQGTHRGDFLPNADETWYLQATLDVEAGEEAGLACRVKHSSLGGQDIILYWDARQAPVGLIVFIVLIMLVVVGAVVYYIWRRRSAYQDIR
T1 sequence (P01887 21-119 partner): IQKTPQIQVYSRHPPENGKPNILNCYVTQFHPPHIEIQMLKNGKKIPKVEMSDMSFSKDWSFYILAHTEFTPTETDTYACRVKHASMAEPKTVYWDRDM
In words: Systemic IgG and in vivo CTL activity in wild type versus CD1d−/− C57BL/6 mice. Particulars: CD1d−/− vs wild type C57BL/6 mice; OVA + αGalCer intranasal three times at one-week intervals. As to the method: To investigate whether the immune responses induced by αGalCer were mediated by CD1d, NKT deficient (resulted from the lack of CD1d) CD1d−/− C57BL/6 mice (Charles River Lab., Orient Co. Ltd., Korea) were used for the experiment (Park et al., J. Exp. Med., 193: 893, 2001). On the first week of the final intranasal administration, systemic IgG level in serum and in vivo CTL activity were measured in both wild type and CD1d−/− C57BL/6 mice by the same manner as described in Example 1 and Example 3.

A further series deals with live PR8 virus. Kind of series: Plaque assay of live PR8 virus in the lung wash after 20 LD50 challenge. The series is classed as in vivo. Particulars: Balb/c mice; 10 μg inactivated PR8 + αGalCer intranasal; three days after 20 LD50 live PR8. As to the method: as §1
Immunized mice were infected with 20 LD50 of live PR8 virus and sacrificed three days later to obtain the lung wash. The amounts of live PR8 virus in the lung wash were measured by plaque assay. Particularly, MDCK cells (purchased from ATCC) were cultured in a 6 well plate at the density of 95-100%. The lung wash was 10-fold diluted by using a medium serially, which was added to the plate, followed by infection for one hour. Then, the lung wash was eliminated. An agarose containing medium was added thereto, followed by further culture in a CO2 incubator for 2-3 days. The numbers of plaques formed therein were counted with the naked eye.

We go through 1 compound from patent US20080317769A1, “Vaccine Composition Comprising Alpha-Galactosylceramide as an Adjuvant For Intranasal Administration” (priority 2005, published 2008).

Entries after “also recorded” stand apart in the source; their conditions may differ.

Turning to `CCCCCCCCCCCCCCCCCCCCCCCCCC(=O)N[C@@H](CO[C@H]1O[C@H](CO)[C@H](O)[C@H](O)[C@H]1O)[C@H](O)[C@H](O)CCCCCCCCCCCCCC` [αGalCer, alpha-galactosylceramide], the “level of OT1 cells expressing CD25 in CLN” value in series [1] is “higher”. For the same compound, the “antigen-specific systemic IgG in serum” value in series [2] (inactivated PR8 (1 μg, 10 μg) + αGalCer intranasal twice at two-week intervals, vs inactivated PR8 alone) is “significantly higher; also recorded: increased”. Moreover, in series [2] (inactivated PR8 + αGalCer intranasal twice at two-week intervals), the “mucosal S-IgA in the nasal wash and the lung wash” value is reported as “remarkably increased”. Also, the side effects entry in series [3] was “no side effects”. Further, the “fraction of mice with tumor masses” value with EG7 tumor cells (0.125 μg αGalCer + 100 μg OVA intranasal) is recorded as “⅓”. Further, in the series with EG7 tumor cells (0.5 μg and 2.0 μg αGalCer together with OVA intranasal), the tumor formation result was “completely inhibited”. For the same compound, in series [4], the “CTL cytotoxicity (specific lysis) in spleen, MLN and CLN” value is recorded as “dose-dependent lytic activity”. Further, in series [4] (listed as α-GalCer), the “CTL cytotoxicity (specific lysis) in spleen, MLN and CLN” value is reported as “higher cytotoxicity”. On CD1d, the “CTL lytic activity in draining lymph node and systemic lymphoid organs of CD1d−/− mice” value is listed as “inhibited”; the “systemic IgG antibody response in CD1d−/− mice” value is “significantly inhibited”. In addition, the “plaques of live PR8 virus in the lung wash” value with live PR8 virus was “no plaque was observed”.
